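Assay format: 96-well plates, 48-hour exposure. TGI: total growth inhibition.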

Among the test systems are SW-620 colon; HOP-92 NSCLC; HT29 colon; K-562 leukemia; OVCAR-8 ovarian; RXF 393 renal; HL-60(TB) leukemia; COLO 205 colon; OVCAR-3 ovarian; SK-MEL-28 melanoma.
Holding throughout (assay): NCI-60 cell line screen, 48 h

Regarding `O=c1cc(-c2ccc(O)cc2)n(C2CC2)c2ccccc12`, the TGI with SW-620 colon was 26.7 µM; in the assay with HOP-92 NSCLC, 19.8 µM; in the assay on HT29 colon, 9.25 µM; with K-562 leukemia, > 100 µM; in the assay on OVCAR-8 ovarian, 47.1 µM; in the assay on RXF 393 renal, 8.42 µM. Also, the TGI in the assay with HL-60(TB) leukemia was determined as 81.6 µM; in the assay on COLO 205 colon, 15.1 µM; with OVCAR-3 ovarian it was 16.8 µM.

Take `CSc1nc(NC2OCC(OC(C)=O)C(OC(C)=O)C2OC(C)=O)c(N=C(C)C(C)=O)c(=O)[nH]1` (centres undefined): the TGI in the assay on SW-620 colon, in the assay with HOP-92 NSCLC, with HT29 colon, with K-562 leukemia, in the assay on OVCAR-8 ovarian and in the assay on RXF 393 renal was > 100 µM each time. Besides, the TGI with HL-60(TB) leukemia, in the assay on SK-MEL-28 melanoma and in the assay with COLO 205 colon was > 100 µM throughout.

Consider `O=C(C=P(c1ccccc1)(c1ccccc1)c1ccccc1)c1cccc(-c2cccc([N+](=O)[O-])c2)c1`, for which the TGI with SW-620 colon was 26.8 µM; with HOP-92 NSCLC, 5.77 µM; with HT29 colon, 4.17 µM; with K-562 leukemia it was > 100 µM; in the assay on OVCAR-8 ovarian, > 100 µM; with RXF 393 renal, > 100 µM. For the same compound, the TGI is 4.82 µM in the assay on HL-60(TB) leukemia, 10.9 µM with SK-MEL-28 melanoma, 2.91 µM with COLO 205 colon and > 100 µM in the assay with OVCAR-3 ovarian.

In the case of `O=C1N(c2ccccc2)C2(c3ccccc3)CC3CCCC13S2` (centres undefined), the TGI in the assay with SW-620 colon, in the assay on HOP-92 NSCLC, in the assay with HT29 colon, with K-562 leukemia, with OVCAR-8 ovarian and with RXF 393 renal was > 100 µM each time. Moreover, the TGI in the assay with HL-60(TB) leukemia was 61.3 µM; in the assay with SK-MEL-28 melanoma, > 100 µM; in the assay on COLO 205 colon it was > 100 µM; in the assay with OVCAR-3 ovarian, > 100 µM.

For the compound `O=C(C[C@H](NC(=O)OCc1ccccc1)C(=O)NC1Cc2ccccc2OC1=O)OCc1ccccc1` (some centres undefined), the TGI in the assay on HOP-92 NSCLC is > 100 µM; in the assay on K-562 leukemia, 49.2 µM; in the assay on OVCAR-8 ovarian, > 100 µM; with RXF 393 renal, > 100 µM; in the assay on SK-MEL-28 melanoma, > 100 µM; with COLO 205 colon it was > 100 µM. For the same compound, the TGI with OVCAR-3 ovarian was > 100 µM.

For `N#Cc1c(NC(=S)Nc2ccc(Cl)cc2)sc2c1CCCC2`, the TGI in the assay on SW-620 colon, in the assay with HT29 colon, with K-562 leukemia, in the assay with OVCAR-8 ovarian, in the assay with RXF 393 renal and in the assay with HL-60(TB) leukemia was > 100 µM each time. Moreover, the TGI in the assay with SK-MEL-28 melanoma, with COLO 205 colon and in the assay with OVCAR-3 ovarian was > 100 µM in each case.

Take `OC1(c2ccc(Cl)cc2)c2c(ccc3c2OCO3)C2=NCCN21` (centres undefined): the TGI in the assay with SW-620 colon was > 100 µM; in the assay with HOP-92 NSCLC it was 73.5 µM; in the assay on HT29 colon, 91.5 µM; with K-562 leukemia, 70.6 µM; in the assay with OVCAR-8 ovarian, > 100 µM; in the assay with RXF 393 renal it was 86 µM. In addition, the TGI in the assay with HL-60(TB) leukemia is > 100 µM; in the assay on SK-MEL-28 melanoma it was 34.6 µM; in the assay with COLO 205 colon it was 33 µM; with OVCAR-3 ovarian, > 100 µM.

With `O=C(O)c1cc(=O)[nH]c(SCc2ccccc2)n1`, the TGI in the assay on SW-620 colon, in the assay on HOP-92 NSCLC, with HT29 colon, with K-562 leukemia, with OVCAR-8 ovarian and in the assay with RXF 393 renal was > 100 µM in each case. Also, the TGI in the assay with HL-60(TB) leukemia, in the assay with SK-MEL-28 melanoma and in the assay on OVCAR-3 ovarian was > 100 µM throughout.

As for `CC(C)CCC[C@@H](C)[C@H]1CC[C@H]2[C@@H]3CC[C@H]4C[C@H](N)CC[C@]4(C)[C@H]3CC[C@]12C`, the TGI is > 100 µM in the assay with SW-620 colon; 34.6 µM with HOP-92 NSCLC; 54.3 µM in the assay on HT29 colon; > 100 µM in the assay on K-562 leukemia; 86.4 µM with OVCAR-8 ovarian; > 100 µM in the assay with RXF 393 renal. In addition, the TGI with HL-60(TB) leukemia was 68.6 µM; in the assay on SK-MEL-28 melanoma, 95 µM; in the assay with COLO 205 colon, 56.3 µM; in the assay with OVCAR-3 ovarian, > 100 µM.

`CCN(CC)CCCC(C)Nc1ccnc2cc3ccccc3cc12` (centres undefined): the TGI in the assay on SW-620 colon was > 100 µM; in the assay with HOP-92 NSCLC, > 100 µM; with K-562 leukemia, > 100 µM; in the assay on OVCAR-8 ovarian, 54.2 µM; in the assay on RXF 393 renal it was 31.4 µM; in the assay with HL-60(TB) leukemia, 75.9 µM. Moreover, the TGI in the assay with COLO 205 colon is 11.7 µM; in the assay on OVCAR-3 ovarian, > 100 µM.

Regarding `Cc1nc2c(n1C)C(=O)c1nc(CBr)[nH]c(=O)c1C2=O`, the TGI in the assay on SW-620 colon, with HOP-92 NSCLC, with HT29 colon, with K-562 leukemia, with OVCAR-8 ovarian and with RXF 393 renal was > 100 µM each time. Besides, the TGI with HL-60(TB) leukemia, with SK-MEL-28 melanoma and in the assay with COLO 205 colon was > 100 µM in each case.

On to `N/C(=N\S(=O)(=O)c1cccc2nsnc12)Nc1ccc(Cl)cc1`, for which the TGI with SW-620 colon was > 100 µM; in the assay with HOP-92 NSCLC, 56.5 µM; with HT29 colon it was > 100 µM; in the assay on K-562 leukemia, > 100 µM; with OVCAR-8 ovarian it was > 100 µM; in the assay on RXF 393 renal it was > 100 µM. For the same compound, the TGI is 78 µM in the assay on HL-60(TB) leukemia, 71.8 µM with SK-MEL-28 melanoma and > 100 µM in the assay with OVCAR-3 ovarian.

As to `CC(C)(C)OC(=O)NCC(=O)NC1c2ccsc2/C(=N/O)[C@H]1O` (some centres undefined), the TGI in the assay on SW-620 colon, in the assay with HOP-92 NSCLC, in the assay with HT29 colon, in the assay on K-562 leukemia, in the assay on OVCAR-8 ovarian and in the assay with RXF 393 renal was > 100 µM throughout. The TGI with HL-60(TB) leukemia, in the assay with SK-MEL-28 melanoma, in the assay with COLO 205 colon and in the assay on OVCAR-3 ovarian was > 100 µM in each case.

With `CCCCCCCCCCCCCCCc1ccc(OCC(O)CO)cc1` (centres undefined), the TGI in the assay with SW-620 colon is 49.1 µM; in the assay with HOP-92 NSCLC, 47.8 µM; with HT29 colon, 46.1 µM; with K-562 leukemia, > 100 µM; in the assay on OVCAR-8 ovarian, 72.7 µM; with RXF 393 renal it was 35.4 µM. In addition, the TGI came to 85 µM in the assay on HL-60(TB) leukemia, 62.2 µM with SK-MEL-28 melanoma, 59.3 µM in the assay on COLO 205 colon and 49.3 µM in the assay on OVCAR-3 ovarian.

For the origin of these results see PubChem BioAssay (NCI).
